Where two headings read alike, the source gives them in different places. Marks after values point to notes of the source that are not given here.
Experiments:
O. volvulus L5 larvae [1] = assay: O. volvulus L5 ex vivo assay, MTT viability; type: cell-based, Onchocerca volvulus; conditions: Day 21, 1 uM
Method: This culturing medium was then added in transwell 24-well plates containing human umbilical vein endothelial cell (HUVEC) monolayers, containing the L4 larvae. A week prior to conducting an assay, the cultured O. volvulus larvae (L5) were transferred into a Petri dish containing fresh medium. […] After the transfer of O. volvulus L5 to the plates, the test compounds were dissolved in DMSO, added to each well, and incubated at 37 °C in a 5% CO2. The media containing freshly prepared compounds were partially replaced every 2–3 days for 14 days. After 14 days, the media were completely replaced. The untreated control contains the media described above with a final concentration of 0.05% DMSO. […] The motility was measured visually by two operators. […] Following washout and incubation during 1 h in PBS under 5% CO2, worms were observed under an inverted microscope. Worms were considered dead if no staining or less than 50% within the worm was observed. Otherwise, if worms stained blue or more than 50% stained, then they are considered alive. All test treatments were performed in duplicates. Significance was determined using a t test.

[2] = Liver S9 metabolic stability assay, human; type: in vitro ADME; conditions: 3 μM, 60 min
Summary of the method: (§1)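 Rat and human liver S9 (0.75 and 1.2 mg/ml) with 1 mM NADPH, 0.5 mM UDPGA, 2.5 mM GSH, 0.05 mg/ml PAPS, 3µM substrate, 60 min at 37 °C in Tris/MgCl2 pH 7.4. Mouse microsomes 0.3 mg/mL, 1 mM NADPH, 3µM, 30 min, phosphate pH 7.4. LC-MS/MS, % remaining, triplicate.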

[3] = biological target: T1, hERG potassium channels (KCNH2, expressed in HEK293 cells) (Homo sapiens, UniProt Q12809); assay: hERG inhibition; type: cell-based; conditions: supplement
T1 construct: expressed in transfected cells

hERG = biological target: T2, hERG (Homo sapiens, UniProt Q12809); assay: hERG inhibition; type: cell-based; conditions: human
T2 construct: expressed in transfected cells

[4] = LogD measurement (octanol-water); type: physicochemical
Summary of the method: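 Human and rat liver microsomes (0.3 mg/mL) with 1 mM NADPH and 3µM substrate, 30 minutes at 37 °C in pH 7.4 phosphate/MgCl2, triplicate; LC-MS/MS percentage remaining. LogD: octanol/aqueous buffer (pH 7.4, 2.2, 6.8, 5), 24 h shaking at room temperature. Kinetic solubility: 200 µM, 2% DMSO, 24 h, filtered.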

O. volvulus L5 larvae [5] = assay: O. volvulus L5 ex vivo assay, motility; type: cell-based; conditions: Onchocerca volvulus, 504 h, read-out: O. volvulus L5 % inhibition of motility
Method: O. volvulus larvae (L4) were prepared using cryopreserved O. volvulus L3 cultured in a medium containing 1:1 NCTC-109 and IMDM (Iscove’s modified Dulbecco’s medium) supplemented with Glutamax (1×) and 2× Antibiotic-Antimycotic (Life Technologies). This culturing medium was then added in transwell 24-well plates containing human umbilical vein endothelial cell (HUVEC) monolayers, containing the L4 larvae. A week prior to conducting an assay, the cultured O. volvulus larvae (L5) were transferred into a Petri dish containing fresh medium. Aliquots of 8–10 worms were retrieved from the Petri dish and placed inside new transwells over newly seeded HUVEC monolayers in the medium described above. After the transfer of O. volvulus L5 to the plates, the test compounds were dissolved in DMSO, added to each well, and incubated at 37 °C in a 5% CO2. The media containing freshly prepared compounds were partially replaced every 2–3 days for 14 days. After 14 days, the media were completely replaced. The untreated control contains the media described above with a final concentration of 0.05% DMSO. The motility was measured every 2–3 days with the following scale: 100% motility, constant coiling movement; 75% motility, slower coiling; 50% motility, slow and intermittent movement; 25% motility, very slow movement or twitching; and 0% motility, no movement. The motility was measured visually by two operators. On day 28, the viability of O. volvulus L5 was measured by MTT. Following washout and incubation during 1 h in PBS under 5% CO2, worms were observed under an inverted microscope. Worms were considered dead if no staining or less than 50% within the worm was observed. Otherwise, if worms stained blue or more than 50% stained, then they are considered alive. All test treatments were performed in duplicates. Significance was determined using a t test.

[6] = Plasma protein binding, rat; type: in vitro ADME; conditions: read-out: Plasma Protein Binding %, r (converted)
[7] = Liver S9 metabolic stability assay, rat; type: in vitro ADME; conditions: 3 μM, 60 min
Summary of the method: as §1

Mouse pharmacokinetics = type: in vivo
Text: All animal experiments were approved by the Institutional Animal Care and Use Committee (IACUC) of Bristol Myers Squibb.

[8] = test system: L. sigmodontis adult worms
[9] = female BALB/c mouse, PO 30 mg/kg
[10] = male CD-1 mouse, PO 10 mg/kg suspension

T2 sequence (Q12809 whole entry): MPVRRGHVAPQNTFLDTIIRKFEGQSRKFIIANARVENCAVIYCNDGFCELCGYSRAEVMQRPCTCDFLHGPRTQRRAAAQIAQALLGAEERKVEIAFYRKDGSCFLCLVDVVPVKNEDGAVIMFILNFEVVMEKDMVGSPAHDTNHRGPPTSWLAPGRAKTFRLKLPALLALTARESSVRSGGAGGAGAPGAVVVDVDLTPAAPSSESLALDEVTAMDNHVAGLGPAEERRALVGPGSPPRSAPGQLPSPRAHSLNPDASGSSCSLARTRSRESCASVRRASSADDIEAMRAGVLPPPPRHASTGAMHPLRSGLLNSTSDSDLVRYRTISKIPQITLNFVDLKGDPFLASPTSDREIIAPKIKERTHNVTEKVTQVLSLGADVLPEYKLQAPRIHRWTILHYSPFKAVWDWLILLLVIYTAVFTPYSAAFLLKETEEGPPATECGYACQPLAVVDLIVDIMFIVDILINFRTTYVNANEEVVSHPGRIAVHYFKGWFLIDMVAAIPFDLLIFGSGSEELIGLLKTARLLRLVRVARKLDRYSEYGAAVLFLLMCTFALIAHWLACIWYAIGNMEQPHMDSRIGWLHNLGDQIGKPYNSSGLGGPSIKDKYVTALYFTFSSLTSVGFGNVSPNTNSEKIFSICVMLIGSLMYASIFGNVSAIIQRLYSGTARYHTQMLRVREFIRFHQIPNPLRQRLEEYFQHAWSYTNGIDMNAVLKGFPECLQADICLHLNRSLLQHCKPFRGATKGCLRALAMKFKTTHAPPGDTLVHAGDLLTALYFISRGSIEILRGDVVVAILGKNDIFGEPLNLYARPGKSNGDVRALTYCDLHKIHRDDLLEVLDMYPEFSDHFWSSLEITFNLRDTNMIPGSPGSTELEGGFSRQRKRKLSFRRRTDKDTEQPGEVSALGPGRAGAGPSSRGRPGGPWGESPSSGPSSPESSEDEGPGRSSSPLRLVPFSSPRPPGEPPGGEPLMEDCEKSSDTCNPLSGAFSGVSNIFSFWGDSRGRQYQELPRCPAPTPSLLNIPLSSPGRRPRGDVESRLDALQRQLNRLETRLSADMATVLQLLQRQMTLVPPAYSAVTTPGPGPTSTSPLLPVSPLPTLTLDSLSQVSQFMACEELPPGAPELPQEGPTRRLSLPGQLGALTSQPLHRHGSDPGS
T1 sequence (Q12809 whole entry): as above

With `CC(C)Oc1ccc(-c2nsc(Nc3ncccc3N(C)C)n2)nc1` [Compound 31, N^2-(3-(5-Isopropoxypyridin-2-yl)-1,2,4-thiadiazol-5-yl)-N3,N3-dimethylpyridine-2,3-diamine] as the molecule, how does the “O. volvulus L5 % inhibition of viability” value (O. volvulus L5 larvae [1]) read?
The value was 100%.

And the “Human S9 metabolic stability” value [2]?
Its value is 86 % remaining.

What about the IC50 [3] of the same molecule?
Its IC50 is 8 µM.

What about the IC50 (hERG) of the same molecule?
The IC50 was 11.4 µM.

And the logD at 24 h ([4]; pH 7.4, read-out: logD)?
Its logD at 24 h is 3.23.

And the logD at 24 h ([4]; supplement, read-out: measured logD)?
Its logD at 24 h is 3.23.

And the inhibition at 1 µM (O. volvulus L5 larvae [5])?
The inhibition at 1 µM was 100%.

And the fraction unbound [6]?
The fraction unbound was less than 0.01.

And the “Rat S9 metabolic stability” value [7]?
Its value is 79 % remaining.

And the Kp at 2 h (Mouse pharmacokinetics; brain and plasma, female BALB/c mouse, PO 30 mg/kg, 2 h, read-out: brain/plasma [b]/[p])?
Its Kp at 2 h is 1.1.

And the “AUC(0-inf)” value (Mouse pharmacokinetics; [9])?
The value was 4.66 ± 0.54 µM·h.

And the Cmax (Mouse pharmacokinetics; [9])?
The Cmax was 5180 nM.

What about the Tmax (Mouse pharmacokinetics; [9]) of the same molecule?
Its Tmax is 30 min.

And the Vd (Mouse pharmacokinetics; in vivo, male CD-1 mouse, IV 2 mg/kg, read-out: Vdss)?
The Vd was 3.01 L/kg.

And the Cl (Mouse pharmacokinetics; male CD-1 mouse, IV 2 mg/kg)?
The Cl was 62.9 mL/min/kg.

What about the “AUC(0-inf)” value (Mouse pharmacokinetics; [10]) of the same molecule?
Its value is 0.94 ^h μM·h.

And the Cmax (Mouse pharmacokinetics; [10])?
The Cmax was 650 nM.

And the Tmax (Mouse pharmacokinetics; plasma, male CD-1 mouse, PO 10 mg/kg suspension, read-out: Tmax)?
Its Tmax is 30 min.

And the bioavailability (Mouse pharmacokinetics; plasma, male CD-1 mouse, PO 10 mg/kg vs IV 2 mg/kg)?
The bioavailability was 13%.

What about the “adult worm burden reduction” value ([8]; mice infected SC with 40 L3 larvae, 30 mg/kg BID 7d oral, figure prints reduction as negative value) of the same molecule?
The value was -97.1%.

And the “reduction of adult worm burden” value ([8]; mice, 30 mg/kg BID, 6 days of dosing)?
The value was 97%.

From article PMC9421654, “Discovery of Substituted Di(pyridin-2-yl)-1,2,4-thiadiazol-5-amines as Novel Macrofilaricidal Compounds for the Treatment of Human Filarial Infections” (Journal of Medicinal Chemistry, 2022)
